Numbers after ± are expanded uncertainties.
Settings: Brillouin light scattering

Structure (SMILES): CCOC(C)(C)C [2-ethoxy-2-methylpropane]
- speed of sound (433.15 K, 920 kPa, Liquid): 454.82 ± 2.7 m/s
- speed of sound (433.15 K, 2500 kPa, Liquid): 483.99 ± 2.7 m/s
- speed of sound (433.15 K, 4000 kPa, Liquid): 513.28 ± 2.8 m/s
- speed of sound (433.15 K, 5500 kPa, Liquid): 541.29 ± 2.9 m/s
- speed of sound (433.15 K, 7000 kPa, Liquid): 568 ± 3.2 m/s
- speed of sound (433.15 K, 8500 kPa, Liquid): 593.43 ± 3.3 m/s
- speed of sound (433.15 K, 10000 kPa, Liquid): 617.57 ± 3.4 m/s
- speed of sound (443.15 K, 1150 kPa, Liquid): 409.25 ± 2.4 m/s
- speed of sound (443.15 K, 2500 kPa, Liquid): 440.1 ± 2.5 m/s
- speed of sound (443.15 K, 4000 kPa, Liquid): 471.64 ± 2.6 m/s
- speed of sound (443.15 K, 5500 kPa, Liquid): 501.8 ± 2.8 m/s
- speed of sound (443.15 K, 7000 kPa, Liquid): 530.58 ± 3 m/s
- speed of sound (443.15 K, 8500 kPa, Liquid): 557.97 ± 3.1 m/s
- speed of sound (443.15 K, 10000 kPa, Liquid): 583.97 ± 3.3 m/s
- speed of sound (453.15 K, 1420 kPa, Gas): 157.35 ± 1.4 m/s
- speed of sound (453.15 K, 1420 kPa, Liquid): 361.97 ± 2.2 m/s
- speed of sound (453.15 K, 2500 kPa, Liquid): 395.94 ± 2.3 m/s
- speed of sound (453.15 K, 4000 kPa, Liquid): 429.85 ± 2.5 m/s
- speed of sound (453.15 K, 5500 kPa, Liquid): 462.29 ± 2.6 m/s
- speed of sound (453.15 K, 7000 kPa, Liquid): 493.25 ± 2.9 m/s
- speed of sound (453.15 K, 8500 kPa, Liquid): 522.72 ± 3 m/s
- speed of sound (453.15 K, 10000 kPa, Liquid): 550.71 ± 3.1 m/s
- speed of sound (463.15 K, 1750 kPa, Gas): 149.62 ± 1.5 m/s
- speed of sound (463.15 K, 1750 kPa, Liquid): 312.51 ± 2.2 m/s
- speed of sound (463.15 K, 2500 kPa, Liquid): 351.51 ± 2.2 m/s
- speed of sound (463.15 K, 4000 kPa, Liquid): 387.92 ± 2.3 m/s
- speed of sound (463.15 K, 5500 kPa, Liquid): 422.75 ± 2.4 m/s
- speed of sound (463.15 K, 7000 kPa, Liquid): 456 ± 2.8 m/s
- speed of sound (463.15 K, 10000 kPa, Liquid): 517.77 ± 3 m/s
- speed of sound (473.15 K, 2130 kPa, Gas): 140.63 ± 1.4 m/s
- speed of sound (473.15 K, 2130 kPa, Liquid): 260.24 ± 2 m/s
- speed of sound (473.15 K, 4000 kPa, Liquid): 345.84 ± 2.1 m/s
- speed of sound (473.15 K, 5500 kPa, Liquid): 383.18 ± 2.3 m/s
- speed of sound (473.15 K, 7000 kPa, Liquid): 418.85 ± 2.7 m/s
- speed of sound (473.15 K, 8500 kPa, Liquid): 452.84 ± 2.8 m/s
- speed of sound (473.15 K, 10000 kPa, Liquid): 485.16 ± 2.9 m/s
- speed of sound (478.15 K, 2340 kPa, Gas): 135.58 ± 1.4 m/s
- speed of sound (483.15 K, 2570 kPa, Gas): 130.09 ± 1.5 m/s
- speed of sound (483.15 K, 2570 kPa, Liquid): 204.36 ± 1.9 m/s
- speed of sound (483.15 K, 4000 kPa, Liquid): 303.61 ± 2 m/s
- speed of sound (483.15 K, 5500 kPa, Liquid): 343.59 ± 2.1 m/s
- speed of sound (488.15 K, 2820 kPa, Gas): 123.95 ± 2.1 m/s
- speed of sound (488.15 K, 2820 kPa, Liquid): 174.7 ± 1.8 m/s
- speed of sound (493.15 K, 3090 kPa, Gas): 116.68 ± 1.4 m/s
- speed of sound (493.15 K, 3090 kPa, Liquid): 143.64 ± 1.8 m/s
- speed of sound (493.15 K, 4000 kPa, Liquid): 261.23 ± 1.9 m/s
- speed of sound (493.15 K, 5500 kPa, Liquid): 303.97 ± 2 m/s
- speed of sound (511.02 K, 5000 kPa, Fluid (supercritical or subcritical phases)): 203.94 ± 2.6 m/s
- speed of sound (511.07 K, 6000 kPa, Fluid (supercritical or subcritical phases)): 251.63 ± 3.1 m/s
- speed of sound (511.12 K, 7000 kPa, Fluid (supercritical or subcritical phases)): 292.44 ± 3 m/s
- speed of sound (511.26 K, 4000 kPa, Fluid (supercritical or subcritical phases)): 109.41 ± 3 m/s
- speed of sound (520.05 K, 4000 kPa, Fluid (supercritical or subcritical phases)): 104.01 ± 1.7 m/s
- speed of sound (521 K, 5000 kPa, Fluid (supercritical or subcritical phases)): 155.15 ± 2.2 m/s
- speed of sound (521.16 K, 6000 kPa, Fluid (supercritical or subcritical phases)): 217.02 ± 3.6 m/s
- speed of sound (521.29 K, 7000 kPa, Fluid (supercritical or subcritical phases)): 264.62 ± 3.3 m/s
- speed of sound (529.5 K, 4000 kPa, Fluid (supercritical or subcritical phases)): 118.19 ± 1.2 m/s
- speed of sound (530.2 K, 5000 kPa, Fluid (supercritical or subcritical phases)): 132.08 ± 1.6 m/s
- speed of sound (530.73 K, 6000 kPa, Fluid (supercritical or subcritical phases)): 183.76 ± 3.4 m/s
- speed of sound (530.99 K, 7000 kPa, Fluid (supercritical or subcritical phases)): 234.87 ± 3.6 m/s
- speed of sound (540.45 K, 4000 kPa, Fluid (supercritical or subcritical phases)): 134.27 ± 1.2 m/s
- speed of sound (541.14 K, 5000 kPa, Fluid (supercritical or subcritical phases)): 128.78 ± 1.2 m/s
- speed of sound (541.48 K, 6000 kPa, Fluid (supercritical or subcritical phases)): 158.8 ± 2.7 m/s
- speed of sound (541.85 K, 7000 kPa, Fluid (supercritical or subcritical phases)): 208.25 ± 3.4 m/s
- speed of sound (550 K, 5000 kPa, Fluid (supercritical or subcritical phases)): 134.46 ± 1.2 m/s
- speed of sound (550.06 K, 4000 kPa, Fluid (supercritical or subcritical phases)): 147.6 ± 1.3 m/s
- speed of sound (550.44 K, 6000 kPa, Fluid (supercritical or subcritical phases)): 144.68 ± 2 m/s
- speed of sound (550.58 K, 7000 kPa, Fluid (supercritical or subcritical phases)): 188.75 ± 3.2 m/s
- speed of sound (561.04 K, 4000 kPa, Fluid (supercritical or subcritical phases)): 161.59 ± 1.4 m/s
- speed of sound (561.29 K, 5000 kPa, Fluid (supercritical or subcritical phases)): 145.73 ± 1.3 m/s
- speed of sound (561.65 K, 6000 kPa, Fluid (supercritical or subcritical phases)): 145.52 ± 1.5 m/s
- speed of sound (561.96 K, 7000 kPa, Fluid (supercritical or subcritical phases)): 176.1 ± 2.4 m/s
- speed of sound (571.2 K, 6000 kPa, Fluid (supercritical or subcritical phases)): 152.92 ± 1.3 m/s
- speed of sound (571.28 K, 7000 kPa, Fluid (supercritical or subcritical phases)): 169.79 ± 1.7 m/s
- speed of sound (571.33 K, 5000 kPa, Fluid (supercritical or subcritical phases)): 158.34 ± 1.3 m/s
- speed of sound (571.72 K, 4000 kPa, Fluid (supercritical or subcritical phases)): 172.96 ± 1.4 m/s
- speed of sound (579.57 K, 7000 kPa, Fluid (supercritical or subcritical phases)): 169.78 ± 1.4 m/s
- speed of sound (579.66 K, 6000 kPa, Fluid (supercritical or subcritical phases)): 163.68 ± 1.3 m/s
- speed of sound (579.91 K, 5000 kPa, Fluid (supercritical or subcritical phases)): 170.18 ± 1.3 m/s
- speed of sound (580.22 K, 4000 kPa, Fluid (supercritical or subcritical phases)): 182.55 ± 1.4 m/s
- speed of sound (590.12 K, 4000 kPa, Fluid (supercritical or subcritical phases)): 194.12 ± 1.4 m/s
- speed of sound (590.27 K, 7000 kPa, Fluid (supercritical or subcritical phases)): 175.32 ± 1.3 m/s
- speed of sound (590.38 K, 5000 kPa, Fluid (supercritical or subcritical phases)): 185.11 ± 1.4 m/s
- speed of sound (590.39 K, 6000 kPa, Fluid (supercritical or subcritical phases)): 178.89 ± 1.4 m/s
- speed of sound (601.53 K, 7000 kPa, Fluid (supercritical or subcritical phases)): 188.12 ± 1.4 m/s
- speed of sound (601.7 K, 6000 kPa, Fluid (supercritical or subcritical phases)): 193.21 ± 1.4 m/s
- speed of sound (602.16 K, 5000 kPa, Fluid (supercritical or subcritical phases)): 199.29 ± 1.4 m/s
- speed of sound (602.86 K, 4000 kPa, Fluid (supercritical or subcritical phases)): 207.43 ± 1.5 m/s
- speed of sound (611.06 K, 7000 kPa, Fluid (supercritical or subcritical phases)): 202.27 ± 1.5 m/s
- speed of sound (611.36 K, 6000 kPa, Fluid (supercritical or subcritical phases)): 206.2 ± 1.5 m/s
- speed of sound (611.87 K, 5000 kPa, Fluid (supercritical or subcritical phases)): 211.58 ± 1.5 m/s
- speed of sound (612.81 K, 4000 kPa, Fluid (supercritical or subcritical phases)): 217.85 ± 1.5 m/s
- speed of sound (622.53 K, 7000 kPa, Fluid (supercritical or subcritical phases)): 213.01 ± 1.5 m/s
- speed of sound (622.84 K, 6000 kPa, Fluid (supercritical or subcritical phases)): 217.4 ± 1.5 m/s
- speed of sound (623.38 K, 5000 kPa, Fluid (supercritical or subcritical phases)): 222.38 ± 1.5 m/s
- speed of sound (623.94 K, 4000 kPa, Fluid (supercritical or subcritical phases)): 226.9 ± 1.5 m/s
- speed of sound (631.83 K, 7000 kPa, Fluid (supercritical or subcritical phases)): 218.09 ± 1.5 m/s
- speed of sound (632.32 K, 6000 kPa, Fluid (supercritical or subcritical phases)): 223.19 ± 1.5 m/s
- speed of sound (633.27 K, 5000 kPa, Fluid (supercritical or subcritical phases)): 228.01 ± 1.5 m/s
- speed of sound (634.19 K, 4000 kPa, Fluid (supercritical or subcritical phases)): 232.56 ± 1.5 m/s
- speed of sound (643.79 K, 7000 kPa, Fluid (supercritical or subcritical phases)): 224.46 ± 1.5 m/s
- speed of sound (643.86 K, 6000 kPa, Fluid (supercritical or subcritical phases)): 228.16 ± 1.5 m/s
- speed of sound (644.48 K, 5000 kPa, Fluid (supercritical or subcritical phases)): 232.66 ± 1.5 m/s
- speed of sound (645.27 K, 4000 kPa, Fluid (supercritical or subcritical phases)): 236.85 ± 1.6 m/s
- speed of sound (653.83 K, 6000 kPa, Fluid (supercritical or subcritical phases)): 231.78 ± 1.6 m/s
- speed of sound (653.89 K, 7000 kPa, Fluid (supercritical or subcritical phases)): 228.08 ± 1.5 m/s
- speed of sound (654.31 K, 5000 kPa, Fluid (supercritical or subcritical phases)): 235.93 ± 1.6 m/s
- speed of sound (654.75 K, 4000 kPa, Fluid (supercritical or subcritical phases)): 239.86 ± 1.6 m/s
- speed of sound (665 K, 6000 kPa, Fluid (supercritical or subcritical phases)): 234.24 ± 1.6 m/s
- speed of sound (665.08 K, 4000 kPa, Fluid (supercritical or subcritical phases)): 242.03 ± 1.6 m/s
- speed of sound (665.1 K, 5000 kPa, Fluid (supercritical or subcritical phases)): 237.76 ± 1.6 m/s
- speed of sound (665.1 K, 7000 kPa, Fluid (supercritical or subcritical phases)): 230.39 ± 1.5 m/s
